# Measured values published in ChEMBL document CHEMBL5649169 (ChemMedChem, 2018).
# Key:
# [1] = target: Coatomer subunit gamma-1 (Homo sapiens) (UniProt Q9Y678); also: assay method not described here
# [2] = target: 2-oxoglutarate dehydrogenase complex component E1 (Homo sapiens) (UniProt Q02218); also: assay method not described here
# Homo sapiens [3] = organism: Homo sapiens; also: assay method not described here
# Wolframin (Homo sapiens) = Wolframin (Homo sapiens) (UniProt O76024); also: assay method not described here
# Chain of Wolframin (Homo sapiens) (O76024 whole entry): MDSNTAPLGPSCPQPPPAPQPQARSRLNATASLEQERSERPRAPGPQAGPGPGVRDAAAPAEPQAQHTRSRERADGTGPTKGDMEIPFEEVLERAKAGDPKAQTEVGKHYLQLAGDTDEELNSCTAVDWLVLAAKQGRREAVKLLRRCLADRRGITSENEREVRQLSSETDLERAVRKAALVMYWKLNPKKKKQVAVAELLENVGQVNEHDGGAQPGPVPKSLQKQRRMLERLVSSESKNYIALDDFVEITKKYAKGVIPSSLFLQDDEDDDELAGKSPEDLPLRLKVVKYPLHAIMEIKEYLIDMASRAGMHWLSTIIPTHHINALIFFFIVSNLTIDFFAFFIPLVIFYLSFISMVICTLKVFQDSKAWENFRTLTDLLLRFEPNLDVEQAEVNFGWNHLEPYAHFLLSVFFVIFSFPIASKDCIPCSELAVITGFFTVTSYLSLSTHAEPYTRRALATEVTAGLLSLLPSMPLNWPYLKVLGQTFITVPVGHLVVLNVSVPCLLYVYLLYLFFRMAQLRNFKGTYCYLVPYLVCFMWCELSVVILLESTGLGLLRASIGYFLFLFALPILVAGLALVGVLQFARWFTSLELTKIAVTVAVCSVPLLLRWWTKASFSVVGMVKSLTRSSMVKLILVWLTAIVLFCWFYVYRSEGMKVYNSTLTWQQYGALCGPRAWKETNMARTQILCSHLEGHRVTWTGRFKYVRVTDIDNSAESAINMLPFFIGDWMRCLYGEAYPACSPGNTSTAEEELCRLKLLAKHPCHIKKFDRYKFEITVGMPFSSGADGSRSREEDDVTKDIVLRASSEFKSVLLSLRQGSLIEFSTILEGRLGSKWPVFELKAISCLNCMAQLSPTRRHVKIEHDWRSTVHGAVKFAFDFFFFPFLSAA
# [4] = target: BMP-2-inducible protein kinase (Homo sapiens) (UniProt Q9NSY1); also: assay method not described here
# [5] = target: Signal recognition particle 9 kDa protein (Homo sapiens) (UniProt P49458); also: assay method not described here
# Chain of Signal recognition particle 9 kDa protein (Homo sapiens) (P49458 whole entry): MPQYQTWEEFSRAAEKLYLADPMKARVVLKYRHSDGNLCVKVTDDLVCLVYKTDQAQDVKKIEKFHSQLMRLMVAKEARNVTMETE
# [6] = target: TAR DNA-binding protein 43 (Homo sapiens) (UniProt Q13148); also: assay method not described here
# [7] = target: Proteasome adapter and scaffold protein ECM29 (Homo sapiens) (UniProt Q5VYK3); also: assay method not described here
# Chain of Proteasome adapter and scaffold protein ECM29 (Homo sapiens) (Q5VYK3 whole entry): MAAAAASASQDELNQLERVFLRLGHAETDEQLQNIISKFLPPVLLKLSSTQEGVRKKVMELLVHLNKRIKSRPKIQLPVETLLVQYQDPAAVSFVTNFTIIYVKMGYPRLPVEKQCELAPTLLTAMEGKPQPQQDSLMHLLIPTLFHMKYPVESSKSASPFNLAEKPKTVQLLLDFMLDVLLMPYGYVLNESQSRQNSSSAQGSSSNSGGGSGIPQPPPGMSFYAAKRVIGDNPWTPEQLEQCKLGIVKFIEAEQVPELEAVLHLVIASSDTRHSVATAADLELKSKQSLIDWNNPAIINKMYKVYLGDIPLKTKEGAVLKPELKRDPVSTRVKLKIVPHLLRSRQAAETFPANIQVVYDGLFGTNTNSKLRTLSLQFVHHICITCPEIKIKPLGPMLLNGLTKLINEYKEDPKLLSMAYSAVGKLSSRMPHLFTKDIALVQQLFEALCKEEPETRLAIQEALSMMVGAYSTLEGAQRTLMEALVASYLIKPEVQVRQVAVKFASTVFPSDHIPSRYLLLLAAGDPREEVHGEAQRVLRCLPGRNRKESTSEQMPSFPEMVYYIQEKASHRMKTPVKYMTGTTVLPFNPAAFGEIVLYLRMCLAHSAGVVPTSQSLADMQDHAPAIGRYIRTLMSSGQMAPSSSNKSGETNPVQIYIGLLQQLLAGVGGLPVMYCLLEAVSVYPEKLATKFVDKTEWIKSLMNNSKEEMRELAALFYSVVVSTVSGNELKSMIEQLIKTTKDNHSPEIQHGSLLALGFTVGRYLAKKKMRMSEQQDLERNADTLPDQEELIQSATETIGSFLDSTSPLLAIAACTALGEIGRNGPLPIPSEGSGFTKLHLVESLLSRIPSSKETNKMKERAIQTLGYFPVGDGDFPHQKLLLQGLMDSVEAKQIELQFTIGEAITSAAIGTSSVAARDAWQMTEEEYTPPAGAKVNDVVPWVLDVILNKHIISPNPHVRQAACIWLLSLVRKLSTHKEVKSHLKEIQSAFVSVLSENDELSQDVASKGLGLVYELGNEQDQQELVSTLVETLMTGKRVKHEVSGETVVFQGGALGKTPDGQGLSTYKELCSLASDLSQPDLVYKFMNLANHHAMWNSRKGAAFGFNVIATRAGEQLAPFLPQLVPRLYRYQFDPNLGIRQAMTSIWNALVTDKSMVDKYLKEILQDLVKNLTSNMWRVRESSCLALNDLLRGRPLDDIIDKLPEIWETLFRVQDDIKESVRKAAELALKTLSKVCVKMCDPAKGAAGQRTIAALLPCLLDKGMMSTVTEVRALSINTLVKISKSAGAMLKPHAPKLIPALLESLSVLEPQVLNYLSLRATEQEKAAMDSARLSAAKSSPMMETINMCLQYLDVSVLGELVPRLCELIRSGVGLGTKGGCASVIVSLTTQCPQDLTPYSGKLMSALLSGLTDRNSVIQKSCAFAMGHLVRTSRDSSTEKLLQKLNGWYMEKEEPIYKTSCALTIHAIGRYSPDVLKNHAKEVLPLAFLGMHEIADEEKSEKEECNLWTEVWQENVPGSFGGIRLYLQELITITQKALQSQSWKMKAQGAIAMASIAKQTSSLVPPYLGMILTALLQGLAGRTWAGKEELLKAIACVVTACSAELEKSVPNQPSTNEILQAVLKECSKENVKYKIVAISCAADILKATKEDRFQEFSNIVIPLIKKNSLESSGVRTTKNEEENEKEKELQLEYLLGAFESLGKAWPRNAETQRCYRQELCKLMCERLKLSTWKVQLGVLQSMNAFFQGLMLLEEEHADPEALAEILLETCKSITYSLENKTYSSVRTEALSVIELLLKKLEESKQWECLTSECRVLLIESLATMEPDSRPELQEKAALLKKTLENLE
# [8] = target: Cytochrome c oxidase subunit 5A, mitochondrial (Homo sapiens) (UniProt P20674); also: assay method not described here
# [9] = target: Dipeptidyl peptidase 2 (Homo sapiens) (UniProt Q9UHL4); also: assay method not described here
# [10] = target: Conserved oligomeric Golgi complex subunit 1 (Homo sapiens) (UniProt Q8WTW3); also: assay method not described here
# Ephrin type-A receptor 7 = Ephrin type-A receptor 7 (Homo sapiens, UniProt Q15375); assay: Inhibition of Nano Luc-fused full length C-terminal EPHA7 (unknown origin) expressed in HEK293T cells using NanoGlo as substrate incubated for 2 hrs in presence of tracer by NanoBRET assay; assay type: cell-based
# [11] = target: Gem-associated protein 5 (Homo sapiens) (UniProt Q8TEQ6); also: assay method not described here
# [12] = target: cAMP-dependent protein kinase catalytic subunit beta (Homo sapiens) (UniProt P22694); also: assay method not described here
# [13] = target: Ras association domain-containing protein 2 (Homo sapiens) (UniProt P50749); also: assay method not described here
# [14] = target: Stomatin-like protein 2, mitochondrial (Homo sapiens) (UniProt Q9UJZ1); also: assay method not described here
# Chain of Stomatin-like protein 2, mitochondrial (Homo sapiens) (Q9UJZ1 whole entry): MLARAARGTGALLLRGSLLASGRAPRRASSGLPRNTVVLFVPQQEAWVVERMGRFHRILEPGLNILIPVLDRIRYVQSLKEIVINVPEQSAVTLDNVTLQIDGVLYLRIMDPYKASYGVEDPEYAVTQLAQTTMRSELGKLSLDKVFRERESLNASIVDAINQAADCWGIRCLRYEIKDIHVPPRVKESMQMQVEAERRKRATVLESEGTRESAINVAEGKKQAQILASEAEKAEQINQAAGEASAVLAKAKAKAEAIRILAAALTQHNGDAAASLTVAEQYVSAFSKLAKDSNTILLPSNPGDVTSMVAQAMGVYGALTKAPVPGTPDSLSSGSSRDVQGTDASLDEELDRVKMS
# [15] = target: Ubiquitin thioesterase OTUB1 (Homo sapiens) (UniProt Q96FW1); also: assay method not described here
# [16] = target: Lipopolysaccharide-responsive and beige-like anchor protein (Homo sapiens) (UniProt P50851); also: assay method not described here
# [17] = target: F-actin-capping protein subunit beta (Homo sapiens) (UniProt P47756); also: assay method not described here
# Chain of F-actin-capping protein subunit beta (Homo sapiens) (P47756 whole entry): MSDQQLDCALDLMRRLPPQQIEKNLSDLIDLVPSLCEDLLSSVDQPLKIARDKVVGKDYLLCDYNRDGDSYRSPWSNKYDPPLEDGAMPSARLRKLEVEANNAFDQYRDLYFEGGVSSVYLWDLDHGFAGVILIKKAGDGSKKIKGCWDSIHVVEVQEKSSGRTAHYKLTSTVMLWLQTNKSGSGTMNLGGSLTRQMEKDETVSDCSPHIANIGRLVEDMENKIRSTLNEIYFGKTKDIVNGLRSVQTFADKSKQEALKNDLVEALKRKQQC
# [18] = target: Vacuolar protein sorting-associated protein 35 (Homo sapiens) (UniProt Q96QK1); also: assay method not described here
# Homo sapiens [19] = organism: Homo sapiens; remark: listed apart in the source; also: assay method not described here
# [20] = target: Guanine nucleotide-binding protein G(i) subunit alpha-2 (Homo sapiens) (UniProt P04899); also: assay method not described here
# Chain of Guanine nucleotide-binding protein G(i) subunit alpha-2 (Homo sapiens) (P04899 whole entry, canonical isoform): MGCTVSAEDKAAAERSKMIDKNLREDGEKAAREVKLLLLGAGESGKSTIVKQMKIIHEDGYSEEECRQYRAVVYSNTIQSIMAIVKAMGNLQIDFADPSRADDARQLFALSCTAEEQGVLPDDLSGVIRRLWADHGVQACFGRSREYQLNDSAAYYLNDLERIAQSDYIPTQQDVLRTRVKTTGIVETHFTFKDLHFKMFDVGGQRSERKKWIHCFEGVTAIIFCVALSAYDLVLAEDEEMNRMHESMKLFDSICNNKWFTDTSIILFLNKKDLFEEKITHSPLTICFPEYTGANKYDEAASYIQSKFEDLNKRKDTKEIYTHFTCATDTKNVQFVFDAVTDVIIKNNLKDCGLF
# [21] = target: Small ribosomal subunit protein eS4, X isoform (Homo sapiens) (UniProt P62701); also: assay method not described here
# [22] = target: Mitogen-activated protein kinase kinase kinase kinase 1 (Homo sapiens) (UniProt Q92918); also: assay method not described here
# [23] = target: Serine/threonine-protein kinase A-Raf (Homo sapiens) (UniProt P10398); also: assay method not described here
# [24] = target: Valine--tRNA ligase (Homo sapiens) (UniProt P26640); also: assay method not described here
# Chain of Valine--tRNA ligase (Homo sapiens) (P26640 whole entry): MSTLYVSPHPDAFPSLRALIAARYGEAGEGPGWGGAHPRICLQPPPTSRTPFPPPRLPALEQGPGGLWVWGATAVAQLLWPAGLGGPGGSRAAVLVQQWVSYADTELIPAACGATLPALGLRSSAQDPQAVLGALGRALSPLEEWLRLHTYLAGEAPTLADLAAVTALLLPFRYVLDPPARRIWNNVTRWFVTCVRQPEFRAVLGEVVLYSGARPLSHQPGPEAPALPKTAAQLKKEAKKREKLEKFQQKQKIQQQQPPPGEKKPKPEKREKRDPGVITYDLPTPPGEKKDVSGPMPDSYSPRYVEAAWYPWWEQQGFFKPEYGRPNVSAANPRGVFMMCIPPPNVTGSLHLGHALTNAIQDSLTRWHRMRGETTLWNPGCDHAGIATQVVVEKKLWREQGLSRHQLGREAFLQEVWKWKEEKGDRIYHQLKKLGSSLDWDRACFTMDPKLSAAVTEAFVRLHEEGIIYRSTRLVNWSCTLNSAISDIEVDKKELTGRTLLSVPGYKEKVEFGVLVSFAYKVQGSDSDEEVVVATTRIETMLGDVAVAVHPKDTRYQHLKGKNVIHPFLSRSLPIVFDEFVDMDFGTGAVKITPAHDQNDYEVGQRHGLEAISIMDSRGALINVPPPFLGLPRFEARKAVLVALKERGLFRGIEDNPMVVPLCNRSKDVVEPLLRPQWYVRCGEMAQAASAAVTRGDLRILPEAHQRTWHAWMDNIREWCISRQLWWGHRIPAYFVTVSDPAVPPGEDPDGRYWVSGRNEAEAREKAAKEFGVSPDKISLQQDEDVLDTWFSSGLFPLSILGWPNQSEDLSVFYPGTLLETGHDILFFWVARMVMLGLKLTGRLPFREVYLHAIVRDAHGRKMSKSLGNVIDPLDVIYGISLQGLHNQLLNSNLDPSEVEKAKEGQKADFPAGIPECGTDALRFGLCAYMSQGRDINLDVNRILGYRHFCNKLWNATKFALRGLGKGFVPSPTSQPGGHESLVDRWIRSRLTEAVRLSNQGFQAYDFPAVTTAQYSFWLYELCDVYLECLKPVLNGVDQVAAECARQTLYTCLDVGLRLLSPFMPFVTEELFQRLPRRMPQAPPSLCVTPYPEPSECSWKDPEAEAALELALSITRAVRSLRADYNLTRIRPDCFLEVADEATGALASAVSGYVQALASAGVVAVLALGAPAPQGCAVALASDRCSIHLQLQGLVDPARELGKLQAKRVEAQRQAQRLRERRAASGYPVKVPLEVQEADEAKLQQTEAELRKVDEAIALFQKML
# [25] = target: Large ribosomal subunit protein uL22 (Homo sapiens) (UniProt P18621); also: assay method not described here
# [26] = target: Protein-tyrosine kinase 2-beta (Homo sapiens) (UniProt Q14289); also: assay method not described here
# [27] = target: Endoplasmic reticulum aminopeptidase 1 (Homo sapiens) (UniProt Q9NZ08); also: assay method not described here
# [28] = target: Signal recognition particle subunit SRP72 (Homo sapiens) (UniProt O76094); also: assay method not described here
# [29] = target: Eukaryotic initiation factor 4A-I (Homo sapiens) (UniProt P60842); also: assay method not described here
# [30] = target: Histone H1.10 (Homo sapiens) (UniProt Q92522); also: assay method not described here
# [31] = target: Alpha-enolase (Homo sapiens) (UniProt P06733); also: assay method not described here
# [32] = target: Eukaryotic translation initiation factor 2A (Homo sapiens) (UniProt Q9BY44); also: assay method not described here
# [33] = target: Transketolase (Homo sapiens) (UniProt P29401); also: assay method not described here
# [34] = target: Prohibitin-2 (Homo sapiens) (UniProt Q99623); also: assay method not described here
# [35] = target: Monocarboxylate transporter 1 (Homo sapiens) (UniProt P53985); also: assay method not described here
# [36] = target: High affinity cationic amino acid transporter 1 (Homo sapiens) (UniProt P30825); also: assay method not described here
# [37] = target: Splicing factor 3B subunit 1 (Homo sapiens) (UniProt O75533); also: assay method not described here
# [38] = target: Tyrosine-protein kinase HCK (Homo sapiens) (UniProt P08631); also: assay method not described here
# [39] = target: UDP-glucose:glycoprotein glucosyltransferase 1 (Homo sapiens) (UniProt Q9NYU2); also: assay method not described here
# [40] = target: Ras-related protein Rab-7a (Homo sapiens) (UniProt P51149); also: assay method not described here
# [41] = target: Endoplasmin (Homo sapiens) (UniProt P14625); also: assay method not described here
# [42] = target: Tyrosine-protein kinase Fer (Homo sapiens) (UniProt P16591); also: assay method not described here
# [43] = target: Tyrosine-protein kinase Yes (Homo sapiens) (UniProt P07947); also: assay method not described here
# [44] = target: CDP-diacylglycerol--inositol 3-phosphatidyltransferase (Homo sapiens) (UniProt O14735); also: assay method not described here
smiles,measurement,setting,value
Cc1ccc(C(=O)Nc2cccc(C(F)(F)F)c2)cc1Nc1nc(-c2cccnc2)nc2c1cnn2C,ED50,[1],164 nM
same,ED50,[2],0.0247 µM
same,ED50,Homo sapiens [3],0.00517 µM
same,ED50,Wolframin (Homo sapiens),2670 nM
same,ED50,[4],1.8 nM
same,ED50,[5],0.00532 mM
same,ED50,[6],814 nM
same,ED50,[7],11 µM
same,ED50,[8],0.00362 mM
same,ED50,[9],5.29 nM
same,ED50,[10],0.0039 µM
same,IC50,Ephrin type-A receptor 7,> 50 µM
same,ED50,[11],105 µM
same,ED50,[12],3650 nM
same,ED50,[13],16.4 nM
same,ED50,[14],19.9 nM
same,ED50,[15],3760 nM
same,ED50,[16],982 µM
same,ED50,[17],8.9 µM
same,ED50,[18],15.7 µM
same,ED50,Homo sapiens [19],11.6 µM
same,ED50,[20],335 nM
same,ED50,[21],29.6 nM
same,ED50,[22],5280 nM
same,ED50,[23],13.1 µM
same,ED50,[24],2390 nM
same,ED50,[25],6.61 µM
same,ED50,[26],0.433 µM
same,ED50,[27],6.22 µM
same,ED50,[28],7.63 nM
same,ED50,[29],0.0241 µM
same,ED50,[30],7.24 µM
same,ED50,[31],4370 nM
same,ED50,[32],25.7 µM
same,ED50,[33],167 nM
same,ED50,[34],7.38 µM
same,ED50,[35],48.2 nM
same,ED50,[36],4060 nM
same,ED50,[37],2850 nM
same,ED50,[38],22 µM
same,ED50,[39],54.5 µM
same,ED50,[40],6.59 µM
same,ED50,[41],3470 nM
same,ED50,[42],29.7 nM
same,ED50,[43],2.58 µM
same,ED50,[44],0.993 nM
Cc1ccc(C(=O)Nc2cccc(C(F)(F)F)c2)cc1Nc1nc(-c2cccnc2)nc2nn(C)cc12,ED50,[1],2750 nM
same,ED50,[2],12.5 µM
same,ED50,Homo sapiens [3],22.8 µM
same,ED50,Wolframin (Homo sapiens),2660 nM
same,ED50,[4],110 nM
same,ED50,[5],2.44 mM
same,ED50,[6],176 nM
same,ED50,[7],1.15 µM
same,ED50,[8],3.25 mM
same,ED50,[9],504 nM
same,ED50,[10],69.8 µM
same,IC50,Ephrin type-A receptor 7,> 50 µM
same,ED50,[11],0.232 µM
same,ED50,[12],6.79 nM
same,ED50,[13],3430 nM
same,ED50,[14],38.6 nM
same,ED50,[15],655 nM
same,ED50,[16],0.167 µM
same,ED50,[17],0.393 µM
same,ED50,[18],0.0256 µM
same,ED50,Homo sapiens [19],1.33 µM
same,ED50,[20],130 nM
same,ED50,[21],515 nM
same,ED50,[22],334 nM
same,ED50,[23],2.15 µM
same,ED50,[24],19.5 nM
same,ED50,[25],15.8 µM
same,ED50,[26],36.6 µM
same,ED50,[27],8.49 µM
same,ED50,[28],614 nM
same,ED50,[29],58.1 µM
same,ED50,[30],0.0167 µM
same,ED50,[31],53 nM
same,ED50,[32],0.0386 µM
same,ED50,[33],151 nM
same,ED50,[34],0.0686 µM
same,ED50,[35],2980 nM
same,ED50,[36],1680 nM
same,ED50,[37],3000 nM
same,ED50,[38],0.0555 µM
same,ED50,[39],0.0435 µM
same,ED50,[40],0.44 µM
same,ED50,[41],55.9 nM
same,ED50,[42],18.9 nM
same,ED50,[43],3.56 µM
same,ED50,[44],58.1 nM
